The source made the active and inactive calls.
Key:
[1] = molecular target: Caspase-8 (Homo sapiens, UniProt Q14790); assay: inhibitors of purified CASP8 protease – biochemical, Z-IETD-R110 fluorescence, cherry-picked samples, selectivity assay for caspase-6 inhibitor project, dose response (AID 743294)
[2] = molecular target: T1, Protein Tat (Human immunodeficiency virus type 1 group M subtype B (isolate HXB2)(HIV-1), UniProt P04608); type: functional;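 also: tat binding to TAR RNA read out by fluorescence polarization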
T1 sequence (P04608 whole entry): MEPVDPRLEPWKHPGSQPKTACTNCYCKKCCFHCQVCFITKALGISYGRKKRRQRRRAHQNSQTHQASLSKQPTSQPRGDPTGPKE

[3] = molecular target: T2, Caspase-6 (Homo sapiens, UniProt P55212); assay: inhibition of CASP6 peptide cleavage – biochemical, VEID-R110 fluorescence, cherry-pick, dose response (AID 720632)
T2 sequence (P55212 whole entry): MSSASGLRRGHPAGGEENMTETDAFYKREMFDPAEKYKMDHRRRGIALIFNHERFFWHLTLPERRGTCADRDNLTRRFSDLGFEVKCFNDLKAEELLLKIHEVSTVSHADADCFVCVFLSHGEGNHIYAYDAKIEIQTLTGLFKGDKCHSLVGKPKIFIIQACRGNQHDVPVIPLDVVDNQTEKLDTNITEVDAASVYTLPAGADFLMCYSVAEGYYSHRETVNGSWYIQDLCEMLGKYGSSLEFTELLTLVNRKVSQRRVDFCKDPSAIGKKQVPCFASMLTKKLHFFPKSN

[4] = molecular target: T3, Caspase-7 (Homo sapiens, UniProt P55210); assay: caspase-7 enzyme inhibition, selectivity check – biochemical, DEVD-R110 fluorescence, cherry-pick, selectivity assay for caspase-6 inhibitor project, dose response (AID 743295); type: functional
T3 sequence (P55210 whole entry): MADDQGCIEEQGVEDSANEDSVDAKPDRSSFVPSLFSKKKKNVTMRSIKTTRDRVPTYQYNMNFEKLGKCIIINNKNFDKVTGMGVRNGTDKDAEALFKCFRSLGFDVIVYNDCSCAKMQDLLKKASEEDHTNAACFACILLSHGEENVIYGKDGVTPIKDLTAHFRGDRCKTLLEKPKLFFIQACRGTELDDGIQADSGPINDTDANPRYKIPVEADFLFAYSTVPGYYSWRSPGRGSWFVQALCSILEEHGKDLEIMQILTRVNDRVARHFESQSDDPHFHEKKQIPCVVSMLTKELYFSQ

[5] = molecular target: Fructose-bisphosphate aldolase (Mycobacterium tuberculosis, UniProt P9WQA3); assay: Fluorescence-based biochemical high throughput dose response assay for inhibitors of the fructose-bisphosphate aldolase (FBA) of M. tuberculosis.; type: functional
[6] = NIH-3T3 fibroblast cytotoxicity, dose response, cytotoxicity control, cell-based, fluorescence, Alamar Blue, secondary assay (AID 2327); type: functional;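 also: NIH-3T3 mouse fibroblasts cultured with fluconazole at 8 µg/mL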
[7] = fluconazole-exposed Candida albicans growth modulators – fluorescence, retest, confirmation (AID 2467); type: functional, cell-based
[8] = molecular target: Albumin (Bos taurus, UniProt P02769); assay: Counterscreen for inhibitors of T-cell receptor (TCR)-CD3 interaction: Fluorescence-based biochemical high throughput dose response assay to identify inhibitors of T-cell receptor (TCR)-CD3 interaction using a TAMRA-labeled BSA probe.; type: functional
[9] = THP-1 cell cytotoxicity, dose response, cytotoxicity control for non-replicating M. tuberculosis project (AID 489025); type: functional
[10] = cells; type: functional, cell-based
[11] = molecular target: T4, DNA repair protein RAD52 homolog (Homo sapiens, UniProt P43351); type: functional, biochemical
T4 sequence (P43351 whole entry): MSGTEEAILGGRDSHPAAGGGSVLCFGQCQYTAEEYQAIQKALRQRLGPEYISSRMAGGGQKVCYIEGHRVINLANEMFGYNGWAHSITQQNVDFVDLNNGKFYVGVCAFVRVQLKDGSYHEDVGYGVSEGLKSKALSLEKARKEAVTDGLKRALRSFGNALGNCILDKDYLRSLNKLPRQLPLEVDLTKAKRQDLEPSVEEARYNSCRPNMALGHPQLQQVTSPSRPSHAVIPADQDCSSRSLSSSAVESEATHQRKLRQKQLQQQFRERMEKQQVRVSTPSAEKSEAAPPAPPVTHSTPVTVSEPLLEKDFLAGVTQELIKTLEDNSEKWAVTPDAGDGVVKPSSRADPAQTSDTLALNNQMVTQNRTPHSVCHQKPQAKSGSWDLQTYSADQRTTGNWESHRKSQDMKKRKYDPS

[12] = Vero E6 cell cytotoxicity, dose response, cytotoxicity control for non-replicating M. tuberculosis project, secondary assay (AID 492998); type: functional, VeroE6; conditions: Vero C1008
[13] = cells; type: functional
[14] = cells; type: functional, cell-based; remark: listed apart in the source
[15] = viability loss in THP-1 monocytes – THP-1 cells, cytotoxicity control for Vif-APOBEC3G degradation inhibitor project, dose response (AID 1117359); type: functional; conditions: THP-1
[16] = potency of ADAM10 substrate cleavage blockers – biochemical, QFRET, dose response (AID 743254);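 also: ADAM10 enzyme with the DM2 quenched FRET peptide as substrate; EDANS fluorescence gain as the protease cuts the substrate; inhibitor potency against ADAM10 proteolytic activity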
[17] = molecular target: Disintegrin and metalloproteinase domain-containing protein 17 (Homo sapiens, UniProt P78536); assay: inhibition of ADAM17 substrate cleavage – biochemical, quenched FRET substrate, counter-screen for ADAM10 exosite inhibitor project, dose response (AID 743253)
[18] = Luminescence Cell-Based Dose Retest to Confirm Inhibitors of Cancer Stem Cells. [Related pubchem assays (depositor defined):AID2717, AID2721]; type: functional; conditions: Homo sapiens
[19] = Trypanosoma cruzi growth suppression in host cells – NIH3T3 host cells, beta-gal luminescence, confirmation (AID 2044); type: functional, cell-based;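 also: intracellular parasites grown in NIH/3T3 mouse fibroblasts as host cells; luminescent beta-galactosidase reporter signal from transgenic T. cruzi replicating inside host cells; inhibitors lower the luminescence signal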
[20] = NIH3T3 cell viability loss – ATP luminescence, mouse fibroblasts, counter-screen, dose response (AID 2010); type: functional, cell-based;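 also: cells exposed to compound for about 90 hours before reading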
[21] = molecular target: T5, Neuropeptides B/W receptor type 1 (Homo sapiens, UniProt P48145); assay: Fluorescence-based dose response cell-based high throughput screening assay to identify antagonists of the G-protein coupled receptor 7 (GPR7). [Related pubchem assays: 1952 (Screening assay (GPR7 antagonists).), 1880 (Summary AID.)]; type: functional
T5 sequence (P48145 whole entry): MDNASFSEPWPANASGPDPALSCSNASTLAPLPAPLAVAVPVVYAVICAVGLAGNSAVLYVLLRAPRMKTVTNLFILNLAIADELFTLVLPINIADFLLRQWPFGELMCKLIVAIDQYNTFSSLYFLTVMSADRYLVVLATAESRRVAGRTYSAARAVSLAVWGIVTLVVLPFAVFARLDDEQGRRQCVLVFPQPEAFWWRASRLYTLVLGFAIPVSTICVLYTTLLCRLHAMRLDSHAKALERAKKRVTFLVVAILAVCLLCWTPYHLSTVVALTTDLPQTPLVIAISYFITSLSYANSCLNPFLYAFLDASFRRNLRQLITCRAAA

[22] = molecular target: Melanin-concentrating hormone receptor 1 (Homo sapiens, UniProt Q99705); assay: Fluorescence-based counterscreen for antagonists of the G-protein coupled receptor 7 (GPR7): cell-based high throughput dose response assay to identify antagonists of the melanin-concentrating hormone receptor 1 (MCHR1).; type: functional
Sequence of Melanin-concentrating hormone receptor 1 (Q99705 whole entry): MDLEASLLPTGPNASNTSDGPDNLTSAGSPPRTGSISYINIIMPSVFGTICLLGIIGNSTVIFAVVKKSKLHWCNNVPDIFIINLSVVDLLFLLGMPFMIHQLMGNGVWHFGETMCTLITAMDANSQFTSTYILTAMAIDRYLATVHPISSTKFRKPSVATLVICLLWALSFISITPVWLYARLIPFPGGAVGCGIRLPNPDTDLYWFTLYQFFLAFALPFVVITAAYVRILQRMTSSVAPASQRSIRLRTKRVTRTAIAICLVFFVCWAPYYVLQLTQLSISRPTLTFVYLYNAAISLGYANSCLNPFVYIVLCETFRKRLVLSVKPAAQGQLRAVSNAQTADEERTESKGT

Sequence of Disintegrin and metalloproteinase domain-containing protein 17 (P78536 whole entry, the tested form may be a part): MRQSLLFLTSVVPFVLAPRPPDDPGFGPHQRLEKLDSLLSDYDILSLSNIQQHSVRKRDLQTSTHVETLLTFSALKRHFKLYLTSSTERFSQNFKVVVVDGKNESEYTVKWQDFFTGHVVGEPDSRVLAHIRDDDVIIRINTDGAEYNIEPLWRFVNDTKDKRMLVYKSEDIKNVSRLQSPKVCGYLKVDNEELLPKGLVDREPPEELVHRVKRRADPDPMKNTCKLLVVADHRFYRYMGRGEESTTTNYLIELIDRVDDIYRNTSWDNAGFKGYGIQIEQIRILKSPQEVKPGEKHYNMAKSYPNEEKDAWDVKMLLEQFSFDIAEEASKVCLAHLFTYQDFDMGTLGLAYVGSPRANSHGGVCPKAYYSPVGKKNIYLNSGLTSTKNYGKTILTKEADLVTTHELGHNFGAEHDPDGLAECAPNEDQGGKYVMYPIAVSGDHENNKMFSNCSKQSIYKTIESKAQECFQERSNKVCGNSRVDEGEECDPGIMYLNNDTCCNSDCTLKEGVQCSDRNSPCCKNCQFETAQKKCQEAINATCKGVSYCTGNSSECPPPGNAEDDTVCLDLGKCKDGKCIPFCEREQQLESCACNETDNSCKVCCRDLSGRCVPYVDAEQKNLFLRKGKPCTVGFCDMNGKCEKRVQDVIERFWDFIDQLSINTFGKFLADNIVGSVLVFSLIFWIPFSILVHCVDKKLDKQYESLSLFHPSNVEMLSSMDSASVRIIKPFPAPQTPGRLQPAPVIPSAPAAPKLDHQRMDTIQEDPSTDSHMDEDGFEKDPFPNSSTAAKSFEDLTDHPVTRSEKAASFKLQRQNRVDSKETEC
Sequence of Caspase-8 (Q14790 217-374 limits assumed): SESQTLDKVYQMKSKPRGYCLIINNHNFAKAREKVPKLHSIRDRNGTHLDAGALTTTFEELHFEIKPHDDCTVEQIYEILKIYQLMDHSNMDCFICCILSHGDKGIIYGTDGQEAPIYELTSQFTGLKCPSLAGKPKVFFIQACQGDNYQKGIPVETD
Sequence of Caspase-8 (Q14790 385-479 limits assumed): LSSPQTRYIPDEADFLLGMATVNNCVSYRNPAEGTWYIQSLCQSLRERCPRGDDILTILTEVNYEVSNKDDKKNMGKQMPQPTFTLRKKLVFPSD
Sequence of Albumin (P02769 whole entry): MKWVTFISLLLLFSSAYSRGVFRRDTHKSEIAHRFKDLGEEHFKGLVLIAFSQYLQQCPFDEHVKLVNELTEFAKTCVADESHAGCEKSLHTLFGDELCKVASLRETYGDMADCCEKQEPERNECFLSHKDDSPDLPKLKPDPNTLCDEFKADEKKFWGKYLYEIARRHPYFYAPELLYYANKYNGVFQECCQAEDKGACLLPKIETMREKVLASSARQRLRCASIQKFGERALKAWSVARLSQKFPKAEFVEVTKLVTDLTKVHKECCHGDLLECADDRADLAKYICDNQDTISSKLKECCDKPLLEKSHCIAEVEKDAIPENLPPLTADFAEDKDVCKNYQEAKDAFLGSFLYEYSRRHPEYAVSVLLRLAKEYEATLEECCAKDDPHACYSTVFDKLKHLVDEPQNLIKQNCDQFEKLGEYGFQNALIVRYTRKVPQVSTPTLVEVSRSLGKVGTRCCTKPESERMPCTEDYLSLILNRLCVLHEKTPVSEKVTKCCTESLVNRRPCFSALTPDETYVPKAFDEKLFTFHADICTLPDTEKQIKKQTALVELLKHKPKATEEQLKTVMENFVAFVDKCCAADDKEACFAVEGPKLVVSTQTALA
Sequence of Fructose-bisphosphate aldolase (P9WQA3 whole entry): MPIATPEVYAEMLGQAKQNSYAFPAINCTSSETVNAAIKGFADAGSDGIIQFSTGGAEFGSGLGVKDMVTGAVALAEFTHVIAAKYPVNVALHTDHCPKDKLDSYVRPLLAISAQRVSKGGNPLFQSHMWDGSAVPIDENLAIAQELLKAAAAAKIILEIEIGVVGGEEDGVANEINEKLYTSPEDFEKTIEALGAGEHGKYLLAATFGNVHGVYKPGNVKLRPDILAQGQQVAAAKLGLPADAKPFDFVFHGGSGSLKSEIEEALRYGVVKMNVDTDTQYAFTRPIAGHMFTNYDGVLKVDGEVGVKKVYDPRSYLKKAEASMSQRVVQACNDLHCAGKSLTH

COc1ccc(NC(=O)CN(C)C(=O)c2cccc(-n3cccc3)c2)cc1
AC50 [1]: 61.2 µM (active) | IC50 [2]: > 100 µM (active) | AC50 [3]: 4.5 µM (active) | AC50 [4]: > 70 µM (inactive)

COc1ccccc1N1C(=O)NC(=O)/C(=C/c2ccc3c4c(cccc24)CC3)C1=O
IC50 [5]: 2.23 µM (active)

Cc1ccc(C(=O)NNC(=O)c2cc3ccccc3cc2O)cc1
EC50 [6]: > 160 µM (inactive) | EC50 [7]: 3.16 µM (active) | IC50 [8]: > 94.1 µM (inactive)

Cc1cc(N/N=C/c2ccccc2O)c2ccccc2n1
CC50 [9]: 25.6 µM (active) | EC50 [10]: > 29.9 µM (inactive) | AC50 [11]: 5.36 µM (active) | CC50 [12]: 17.6 µM (active) | IC50 [13]: 7.92 µM (active) | IC50 [14]: > 29.9 µM (inactive)

CC(=O)NN1C(=O)/C(=C\c2ccc(Br)o2)SC1=S
CC50 [15]: > 40 µM (active)

C=CCC[C@H](Cc1ccc(F)cc1)C(=O)OC[C@@H](Cc1c[nH]c2ccccc12)NC(=O)[C@@H](CC=C)CC(=O)N(CCO)Cc1ccccc1
IC50 [16]: > 69.5 µM (inactive) | IC50 [17]: > 69.5 µM (inactive) | AC50 [18]: 4.62 µM (active)

OC(COCC(F)(F)C(F)(F)C(F)(F)C(F)F)Cn1c2ccccc2c2ccccc21 (stereo not given)
IC50 [16]: > 7.73 µM (active) | IC50 [17]: > 69.5 µM (inactive) | EC50 [19]: 1.71 µM (active) | AC50 [18]: 2.9 µM (active) | EC50 [20]: > 60 µM (inconclusive)

CN(C(=O)CN1C(=O)C2C3CC(C(Br)C3Br)C2C1=O)C1CCCCC1 (stereo not given)
IC50 [21]: 13.4 µM (not active) | IC50 [22]: > 43.8 µM (not active)

Source: ChEMBL document CHEMBL1201862, “PubChem BioAssay data set” (2004)
